Experimental data published in patent publication US6358885B1, “Substituted phenylheterocyclic herbicides” (Mississippi State University, priority 1992, dated 2002).

Columns and labels:
Experiment in all cases: Test B preemergence/postemergence greenhouse plant response rating 0 to 10
cotton = assay type: in vivo, Gossypium hirsutum; settings: for Plant response rating, Cotton: 0 to 10 scale
Method in brief: (§1)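 Test chemicals, dissolved in a non-phytotoxic solvent, were applied to soil at planting and, at the same time, over foliage of seedlings at the one to four leaf stage.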

lambsquarters = assay type: in vivo, Chenopodium album; settings: 0 to 10 scale
Method in brief: as §1

rice = assay type: in vivo, Oryza sativa; settings: 0 to 10 scale
Method in brief: as §1

wild oat = assay type: in vivo, Avena fatua; settings: 0 to 10 scale
Method in brief: as §1

wheat = assay type: in vivo, Triticum aestivum; settings: 0 to 10 scale
Method in brief: as §1

corn = assay type: in vivo, Zea mays; settings: for Plant response rating, Corn: 0 to 10 scale
Method in brief: as §1

cheatgrass = assay type: in vivo, Bromus secalinus; settings: for Plant response rating, Cheatgrass: 0 to 10 scale
Method in brief: as §1

| Compound | Plant response rating (0 to 10 scale), Cotton (cotton; POSTEMERGENCE, Rate 50 g/ha) | Plant response rating, Cotton (cotton; POSTEMERGENCE, Rate 200 g/ha) | Plant response rating, Cotton (cotton; PREEMERGENCE, Rate 50 g/ha) | Plant response rating, Cotton (cotton; Rate 200 g/ha, PREEMERGENCE) | Plant response rating, Lambsquarter (lambsquarters; POSTEMERGENCE, Rate 50 g/ha) | Plant response rating, Lambsquarter (lambsquarters; POSTEMERGENCE, Rate 200 g/ha) | Plant response rating, Lambsquarter (lambsquarters; PREEMERGENCE, Rate 50 g/ha) | Plant response rating, Lambsquarter (lambsquarters; Rate 200 g/ha, PREEMERGENCE) | Plant response rating, Rice (rice; POSTEMERGENCE, Rate 50 g/ha) | Plant response rating, Rice (rice; POSTEMERGENCE, Rate 200 g/ha) | Plant response rating, Rice (rice; PREEMERGENCE, Rate 50 g/ha) | Plant response rating, Rice (rice; Rate 200 g/ha, PREEMERGENCE) | Plant response rating, Wild oat (wild oat; POSTEMERGENCE, Rate 50 g/ha) | Plant response rating, Wild oat (wild oat; POSTEMERGENCE, Rate 200 g/ha) | Plant response rating, Wild oat (wild oat; Rate 200 g/ha, PREEMERGENCE) | Plant response rating, Wheat (wheat; POSTEMERGENCE, Rate 50 g/ha) | Plant response rating, Wheat (wheat; POSTEMERGENCE, Rate 200 g/ha) | Plant response rating, Wheat (wheat; PREEMERGENCE, Rate 50 g/ha) | Plant response rating, Wheat (wheat; Rate 200 g/ha, PREEMERGENCE) | Plant response rating (0 to 10 scale), Corn (corn; POSTEMERGENCE, Rate 50 g/ha) | also measured |
| --- | --- | --- | --- | --- | --- | --- | --- | --- | --- | --- | --- | --- | --- | --- | --- | --- | --- | --- | --- | --- | --- |
| Fc1cc(Cl)c(OC2CCCC2)cc1-c1nn2c(c1Cl)CCCC2 [Compound 24] | 10 | 10 | 3 | 8 | 9 | 10 | 9 | 10 | 5 | 5 | 0 | 0 | 3 | 4 | 2 | 3 | 4 | 0 | 1 | 5 | Plant response rating, Corn (corn; POSTEMERGENCE, Rate 200 g/ha): 5; Plant response rating, Corn (corn; PREEMERGENCE, Rate 50 g/ha): 0; Plant response rating, Corn (corn; Rate 200 g/ha, PREEMERGENCE): 1; Plant response rating (0 to 10 scale), Cheatgrass (cheatgrass; POSTEMERGENCE, Rate 50 g/ha): 3; Plant response rating, Cheatgrass (cheatgrass; POSTEMERGENCE, Rate 200 g/ha): 5; Plant response rating, Cheatgrass (cheatgrass; PREEMERGENCE, Rate 50 g/ha): 0; Plant response rating, Cheatgrass (cheatgrass; Rate 200 g/ha, PREEMERGENCE): 4 |
| CCCOc1cc(-c2nn3c(c2Cl)CCCC3)c(F)cc1Cl [Compound 23] | 10 | 10 | 5 | 5 | 10 | 10 | 10 | 10 | 4 | 6 | 0 | 2 | 3 | 5 | 6 | 2 | 6 | 0 | 2 | 4 | Plant response rating, Corn (corn; POSTEMERGENCE, Rate 200 g/ha): 6; Plant response rating, Corn (corn; PREEMERGENCE, Rate 50 g/ha): 0; Plant response rating, Corn (corn; Rate 200 g/ha, PREEMERGENCE): 6; Plant response rating (0 to 10 scale), Cheatgrass (cheatgrass; POSTEMERGENCE, Rate 50 g/ha): 6; Plant response rating, Cheatgrass (cheatgrass; POSTEMERGENCE, Rate 200 g/ha): 8; Plant response rating, Cheatgrass (cheatgrass; PREEMERGENCE, Rate 50 g/ha): 4; Plant response rating, Cheatgrass (cheatgrass; Rate 200 g/ha, PREEMERGENCE): 6 |
